How the values were obtained:
[1] = target: T1, DENV1 NS5 (Dengue virus type 1, UniProt P17763); assay: Nucleotide analogue incorporation / discrimination assay, DENV1 NS5; type: biochemical; conditions: GTP for AT-9010 and AT-9002, UTP for SOF-TP
Experimental: (§1) The chain-terminating efficiency of Compound 5 was measured in competitive nucleotide incorporation assays using all four DENV serotypes. […] In comparison, sofosbuvir triphosphate is incorporated into the RNA less than 1 time for every 100 UTP (native uridine triphosphate) incorporations.
(§2) Measurements and quantitations were as in FIG. 19B.
(§3) DENV NS5 was pre-incubated with the annealed P10/T20 RNA in an assembly buffer containing 20 mM HEPES pH 7.5, 10% glycerol, 5 mM MgCl2, and 5 mM DTT for 10 min at 30° C. to create an active RNA elongation complex.
(§4) Reactions were started by adding AT-9010 with either all four NTPs or UTP, ATP, and CTP only.
(§5) Single nucleotide incorporation was tested as follows. Reactions were started by adding the corresponding NTP or analogue. Final concentrations were 1 μM NS5, 0.25 μM P10/T20, 100 μM NTP or analogue in a final buffer containing 20 mM HEPES pH 7.5, 15% glycerol, 5 mM MgCl2, and 5 mM DTT.
(§6) Reactions were quenched at the designated time points in 3× volume FBD stop solution (formamide, 10 mM EDTA) and analyzed on 20% acrylamide-bisacrylamide (19:1) […] sequencing gels. RNA products were visualized using a Typhoon FluorImager then analyzed and quantified using ImageQuant software.

[2] = target: T2, DENV3 NS5 (Dengue virus type 3, UniProt Q6YMS4); assay: Nucleotide analogue incorporation / discrimination assay, DENV3 NS5; type: biochemical; conditions: GTP for AT-9010 and AT-9002, UTP for SOF-TP
Experimental: as §1, §2, §3, §4, §5, §6

[3] = target: T3, DENV4 NS5 (Dengue virus type 4, UniProt P09866); assay: Nucleotide analogue incorporation / discrimination assay, DENV4 NS5; type: biochemical; conditions: GTP for AT-9010 and AT-9002, UTP for SOF-TP
Experimental: as §1
The nature of regular inserted Watson-Crick nucleotides is indicated in the right of the gel. […] Quantification of band-products greater in size than the G/AT (+5) band relative to the G/AT (+5) band were measured using a Typhoon FluorImager, and allowed to calculate the discrimination value. The incorporation rates for […] and AT9002 are compared to that of GTP, and to that of UTP in the case of SOF-TP.
as §2, §3, §4, §5, §6

[4] = target: T4, DENV2 NS5 (Dengue virus type 2, UniProt P14340); assay: Nucleotide analogue incorporation / discrimination assay, DENV2 NS5; type: biochemical; conditions: DENV2; GTP for AT-9010 and AT-9002, UTP for SOF-TP
Experimental: as §1
The experimental procedure is provided in Example 10.
as §2
DENV NS5 was preincubated with the annealed P10/T20 RNA in an assembly buffer containing 20 mM HEPES pH 7.5, 10% glycerol, 5 mM MgCl2 and 5 mM DTT for 10 min at 30° C. to create an active RNA elongation complex. Reactions were started by adding AT-9010 with either all four NTPs, or UTP, ATP and CTP only. […] Reactions were quenched at indicated timepoints in 2× volume FBD stop solution (formamide, 10 mM EDTA) and analysed on 20% acrylamide:bisacrylamide (19:1), […] sequencing gels. RNA products were visualized using a Typhoon FluorImager and analyzed using ImageQuant software.
as §3, §4, §5, §6

[5] = system: granulocyte macrophage (GM) human bone marrow progenitor cells; assay: Bone marrow progenitor cell assay, granulocyte macrophage (GM); conditions: GM cell assay, 14 days, colonies counted
[6] = system: erythroid (E) human bone marrow progenitor cells; assay: Bone marrow progenitor cell assay, erythroid (E); conditions: E cell assay, 14 days, colonies counted
[7] = target: T3, DENV4 NS5; assay: Thermal shift assay, DENV4 NS5; conditions: read-out: ΔTM
[8] = target: DENV1 MTase domain (Dengue virus type 1, UniProt P17763); assay: Thermal shift assay, DENV1 MTase domain; conditions: read-out: ΔTM
[9] = target: DENV2 RdRp domain (Dengue virus type 2, UniProt P14340); assay: Thermal shift assay, DENV2 RdRp domain; conditions: read-out: ΔTM
[10] = target: DENV4 MTase domain (Dengue virus type 4, UniProt P09866); assay: Thermal shift assay, DENV4 MTase domain; conditions: read-out: ΔTM
[11] = system: DENV4 RdRp domain; assay: Thermal shift assay, DENV4 RdRp domain; conditions: RdRp domain DENV4, 100 μM compound
[12] = target: T1, DENV1 NS5; assay: Thermal shift assay, DENV1 NS5; conditions: read-out: ΔTM
[13] = system: DENV3 RdRp domain; assay: Thermal shift assay, DENV3 RdRp domain; conditions: RdRp domain DENV3, 100 μM compound
[14] = target: T4, DENV2 NS5; assay: Thermal shift assay, DENV2 NS5; conditions: read-out: ΔTM
[15] = system: DENV1 RdRp domain; assay: Thermal shift assay, DENV1 RdRp domain; conditions: RdRp domain DENV1, 100 μM compound
[16] = target: DENV2 MTase domain (Dengue virus type 2, UniProt P14340); assay: Thermal shift assay, DENV2 MTase domain; conditions: read-out: ΔTM
[17] = target: T2, DENV3 NS5; assay: Thermal shift assay, DENV3 NS5; conditions: read-out: ΔTM
[18] = target: DENV3 MTase domain (Dengue virus type 3, UniProt Q6YMS4); assay: Thermal shift assay, DENV3 MTase domain; conditions: read-out: ΔTM
[19] = system: human induced pluripotent stem cell (iPS) cardiomyocytes; assay: Cardiomyocyte cytotoxicity assay (CellTiter Glo); conditions: iPS cardiomyocytes, 3 days
[20] = system: NS5 RNA dependent RNA polymerase (RdRp); assay: Competitive nucleotide incorporation assays, all four DENV serotypes (summary); type: biochemical, Dengue virus; conditions: versus native uridine triphosphate
Experimental: As described in Example 10 and shown in FIG. 1, the active metabolite of Compound 2 or Compound 1 (Compound 5) acts as a GTP analog and is incorporated into RNA by the NS5 RNA dependent RNA polymerase (RdRp), immediately terminating synthesis.
as §1

T1 sequence (P17763 2494-3392): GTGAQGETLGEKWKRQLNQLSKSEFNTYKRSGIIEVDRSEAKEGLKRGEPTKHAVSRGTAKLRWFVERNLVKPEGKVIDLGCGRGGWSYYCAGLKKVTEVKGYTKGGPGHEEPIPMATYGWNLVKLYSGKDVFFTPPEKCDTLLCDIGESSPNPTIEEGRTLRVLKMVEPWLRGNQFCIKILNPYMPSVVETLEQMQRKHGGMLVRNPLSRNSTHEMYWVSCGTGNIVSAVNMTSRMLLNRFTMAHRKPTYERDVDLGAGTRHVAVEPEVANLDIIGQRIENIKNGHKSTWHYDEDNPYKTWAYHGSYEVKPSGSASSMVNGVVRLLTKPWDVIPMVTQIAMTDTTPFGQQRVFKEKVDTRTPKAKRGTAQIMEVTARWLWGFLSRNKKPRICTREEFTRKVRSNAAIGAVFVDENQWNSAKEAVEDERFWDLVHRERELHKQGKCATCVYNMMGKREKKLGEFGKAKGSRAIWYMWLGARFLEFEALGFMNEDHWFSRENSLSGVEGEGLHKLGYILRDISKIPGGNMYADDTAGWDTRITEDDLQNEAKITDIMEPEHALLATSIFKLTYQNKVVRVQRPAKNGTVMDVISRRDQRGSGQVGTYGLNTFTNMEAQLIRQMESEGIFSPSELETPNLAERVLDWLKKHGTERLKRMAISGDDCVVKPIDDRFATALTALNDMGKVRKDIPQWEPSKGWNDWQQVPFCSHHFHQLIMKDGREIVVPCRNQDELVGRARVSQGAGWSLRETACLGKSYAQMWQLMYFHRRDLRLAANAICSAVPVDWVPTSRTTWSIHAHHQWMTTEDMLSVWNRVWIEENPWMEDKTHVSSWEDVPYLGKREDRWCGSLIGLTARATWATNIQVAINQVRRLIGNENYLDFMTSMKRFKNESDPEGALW
T3 sequence (P09866 2488-3387): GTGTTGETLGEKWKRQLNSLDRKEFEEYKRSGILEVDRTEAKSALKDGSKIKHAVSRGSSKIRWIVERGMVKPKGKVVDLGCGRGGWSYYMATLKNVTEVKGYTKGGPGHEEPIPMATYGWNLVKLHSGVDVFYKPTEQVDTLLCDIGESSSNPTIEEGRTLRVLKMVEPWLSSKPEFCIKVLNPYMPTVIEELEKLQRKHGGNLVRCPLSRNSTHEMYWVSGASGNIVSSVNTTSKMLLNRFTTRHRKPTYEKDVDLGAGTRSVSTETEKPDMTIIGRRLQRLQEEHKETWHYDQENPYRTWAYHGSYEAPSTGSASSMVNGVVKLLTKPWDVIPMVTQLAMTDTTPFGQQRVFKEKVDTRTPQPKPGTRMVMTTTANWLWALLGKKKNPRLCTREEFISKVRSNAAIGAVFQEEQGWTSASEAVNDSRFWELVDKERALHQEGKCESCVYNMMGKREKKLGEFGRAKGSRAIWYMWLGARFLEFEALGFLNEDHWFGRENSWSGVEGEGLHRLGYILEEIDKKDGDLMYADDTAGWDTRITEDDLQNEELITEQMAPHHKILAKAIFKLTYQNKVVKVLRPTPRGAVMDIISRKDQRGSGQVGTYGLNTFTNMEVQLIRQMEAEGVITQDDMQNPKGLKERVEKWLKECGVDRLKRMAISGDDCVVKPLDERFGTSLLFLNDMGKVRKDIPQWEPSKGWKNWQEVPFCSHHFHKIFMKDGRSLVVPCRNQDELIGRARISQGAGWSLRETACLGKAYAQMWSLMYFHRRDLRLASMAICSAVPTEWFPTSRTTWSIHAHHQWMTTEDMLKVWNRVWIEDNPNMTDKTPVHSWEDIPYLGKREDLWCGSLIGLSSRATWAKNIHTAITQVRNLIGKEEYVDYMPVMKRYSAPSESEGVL
T2 sequence (Q6YMS4 2491-3390): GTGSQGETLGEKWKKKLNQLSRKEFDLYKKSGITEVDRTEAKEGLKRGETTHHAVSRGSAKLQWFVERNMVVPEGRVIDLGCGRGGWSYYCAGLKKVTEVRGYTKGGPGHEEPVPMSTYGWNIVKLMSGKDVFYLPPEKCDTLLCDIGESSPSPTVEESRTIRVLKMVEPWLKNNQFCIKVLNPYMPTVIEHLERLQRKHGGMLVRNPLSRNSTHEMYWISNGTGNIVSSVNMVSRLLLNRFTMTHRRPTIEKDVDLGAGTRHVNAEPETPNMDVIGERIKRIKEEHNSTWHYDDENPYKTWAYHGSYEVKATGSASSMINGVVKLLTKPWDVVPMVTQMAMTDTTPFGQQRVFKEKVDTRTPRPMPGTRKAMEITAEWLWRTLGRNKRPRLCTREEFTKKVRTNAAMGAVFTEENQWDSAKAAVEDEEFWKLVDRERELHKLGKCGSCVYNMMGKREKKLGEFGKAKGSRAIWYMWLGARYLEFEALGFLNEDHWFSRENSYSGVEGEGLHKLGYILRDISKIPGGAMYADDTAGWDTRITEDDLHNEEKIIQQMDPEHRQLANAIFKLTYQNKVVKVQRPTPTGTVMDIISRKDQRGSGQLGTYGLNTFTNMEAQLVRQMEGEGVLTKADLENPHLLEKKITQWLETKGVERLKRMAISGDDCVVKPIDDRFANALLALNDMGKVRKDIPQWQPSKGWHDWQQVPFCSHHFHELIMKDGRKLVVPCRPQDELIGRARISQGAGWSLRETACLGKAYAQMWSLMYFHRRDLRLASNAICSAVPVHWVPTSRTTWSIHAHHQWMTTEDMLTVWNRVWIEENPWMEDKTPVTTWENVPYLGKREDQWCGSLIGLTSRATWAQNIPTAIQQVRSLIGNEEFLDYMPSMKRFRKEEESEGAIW
DENV3 MTase domain, sequence (Q6YMS4 2492-2753): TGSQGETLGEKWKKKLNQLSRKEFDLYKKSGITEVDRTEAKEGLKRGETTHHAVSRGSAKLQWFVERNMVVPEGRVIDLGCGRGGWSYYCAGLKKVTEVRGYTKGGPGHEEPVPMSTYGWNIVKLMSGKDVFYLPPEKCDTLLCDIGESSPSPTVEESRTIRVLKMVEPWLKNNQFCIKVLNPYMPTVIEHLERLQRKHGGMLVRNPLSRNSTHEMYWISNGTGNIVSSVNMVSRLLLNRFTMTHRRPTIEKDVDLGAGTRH
DENV1 MTase domain, sequence (P17763 2495-2756): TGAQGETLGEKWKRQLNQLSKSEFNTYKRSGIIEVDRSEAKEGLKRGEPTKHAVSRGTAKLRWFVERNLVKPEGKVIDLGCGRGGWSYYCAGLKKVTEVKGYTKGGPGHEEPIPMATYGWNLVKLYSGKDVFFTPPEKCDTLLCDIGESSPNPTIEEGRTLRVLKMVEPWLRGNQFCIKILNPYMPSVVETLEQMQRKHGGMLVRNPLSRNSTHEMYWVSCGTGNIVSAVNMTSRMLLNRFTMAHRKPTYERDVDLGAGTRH
DENV4 MTase domain, sequence (P09866 2489-2751): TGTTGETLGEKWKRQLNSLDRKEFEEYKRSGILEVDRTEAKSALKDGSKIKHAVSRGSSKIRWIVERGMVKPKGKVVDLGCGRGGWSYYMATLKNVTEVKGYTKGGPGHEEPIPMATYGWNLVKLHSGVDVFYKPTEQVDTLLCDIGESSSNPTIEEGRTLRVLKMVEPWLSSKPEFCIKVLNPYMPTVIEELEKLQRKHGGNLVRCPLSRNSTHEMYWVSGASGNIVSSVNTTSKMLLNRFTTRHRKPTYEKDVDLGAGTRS

Row | Compound | Preference (discrimination) native nucleotide > analogue [1] | Preference (discrimination) native nucleotide > analogue [2] | Preference (discrimination) native nucleotide > analogue [3] | Preference (discrimination) native nucleotide > analogue [4] | ΔTm at 100 µM [7] | ΔTm at 100 µM [8] | ΔTm at 100 µM [9] | ΔTm at 100 µM [10] | ΔTm at 100 µM [12] | ΔTm at 100 µM [14] | ΔTm at 100 µM [16] | ΔTm at 100 µM [17] | ΔTm at 100 µM [18] | other results
1 | C[C@@]1(O)[C@H](O)[C@@H](COP(=O)(O)OP(=O)(O)OP(=O)(O)O)O[C@H]1n1cnc2c(=O)[nH]c(N)nc21 [AT-9002, 2′-methylguanosine triphosphate] | 19.4 ± 2.8 | 17.5 ± 1.5 | 41.5 ± 7.3 | 18.2 ± 0.2 | – | – | – | – | – | – | – | – | – | –
2 | Cc1cn([C@H]2C[C@H](N=[N+]=[N-])[C@@H](CO)O2)c(=O)[nH]c1=O [AZT, reference compound] | – | – | – | – | – | – | – | – | – | – | – | – | – | CC50 [5]: 2000 nM; CC50 [6]: 3000 nM
3 | Nc1nc2c(ncn2[C@@H]2O[C@H](COP(=O)(O)OP(=O)(O)OP(=O)(O)O)[C@@H](O)[C@H]2O)c(=O)[nH]1 [GTP, guanosine triphosphate] | – | – | – | – | 3.9 ± 0.1 °C | 4.9 ± 0.1 °C | 2.4 ± 0.1 °C | 4 ± 0.1 °C | 5.8 ± 0.1 °C | 5.7 ± 0.1 °C | 5.7 ± 0.1 °C | 4.8 ± 0.1 °C | 4.1 ± 0.1 °C | ΔTM [11]: 3.3 ± 0.1 °C; ΔTM [13]: 2.2 ± 0.1 °C; ΔTM [15]: 4.5±0.2 °C
4 | Nc1ncnc2c1ncn2[C@@H]1O[C@H](C[C@@H](N)CC[C@H](N)C(=O)O)[C@@H](O)[C@H]1O [Sinefungin, sinefungin] | – | – | – | – | 1.4 ± 0.1 °C | 1.9 ± 0.1 °C | -0.8 ± 0.1 °C | 2.8 ± 0.1 °C | 1.2 ± 0.1 °C | 1.4 ± 0.1 °C | 2.9 ± 0.1 °C | 1.8 ± 0.1 °C | 2.1 ± 0.1 °C | –
5 | COc1cc2nc(N3CCN(C(=O)C4COc5ccccc5O4)CC3)nc(N)c2cc1OC (stereo not drawn) [doxazosin, reference compound] | – | – | – | – | – | – | – | – | – | – | – | – | – | CC50 [19]: 7 µM
6 | sofosbuvir triphosphate [SOF-TP] | >100 | >100 | >100 | >100 | – | – | – | – | – | – | – | – | – | incorporations into the RNA for every 100 UTP incorporations [20]: less than 1

Reference: patent US20250082656A1, “DOSAGE REGIMENS FOR TREATMENT OF DENGUE INFECTION” (Atea Pharmaceuticals, Inc., priority 2022, published 2025)
